Tests used:
[1] = molecular target: Death-associated protein kinase 1 (Homo sapiens, UniProt P53355); assay: Selectivity interaction (Kinase panel (DSF assay)) EUB0001558a DAPK1
[2] = molecular target: T1, Inhibitor of nuclear factor kappa-B kinase subunit beta (Homo sapiens) (UniProt O14920); conditions: at 1 µM
T1 sequence (whole entry): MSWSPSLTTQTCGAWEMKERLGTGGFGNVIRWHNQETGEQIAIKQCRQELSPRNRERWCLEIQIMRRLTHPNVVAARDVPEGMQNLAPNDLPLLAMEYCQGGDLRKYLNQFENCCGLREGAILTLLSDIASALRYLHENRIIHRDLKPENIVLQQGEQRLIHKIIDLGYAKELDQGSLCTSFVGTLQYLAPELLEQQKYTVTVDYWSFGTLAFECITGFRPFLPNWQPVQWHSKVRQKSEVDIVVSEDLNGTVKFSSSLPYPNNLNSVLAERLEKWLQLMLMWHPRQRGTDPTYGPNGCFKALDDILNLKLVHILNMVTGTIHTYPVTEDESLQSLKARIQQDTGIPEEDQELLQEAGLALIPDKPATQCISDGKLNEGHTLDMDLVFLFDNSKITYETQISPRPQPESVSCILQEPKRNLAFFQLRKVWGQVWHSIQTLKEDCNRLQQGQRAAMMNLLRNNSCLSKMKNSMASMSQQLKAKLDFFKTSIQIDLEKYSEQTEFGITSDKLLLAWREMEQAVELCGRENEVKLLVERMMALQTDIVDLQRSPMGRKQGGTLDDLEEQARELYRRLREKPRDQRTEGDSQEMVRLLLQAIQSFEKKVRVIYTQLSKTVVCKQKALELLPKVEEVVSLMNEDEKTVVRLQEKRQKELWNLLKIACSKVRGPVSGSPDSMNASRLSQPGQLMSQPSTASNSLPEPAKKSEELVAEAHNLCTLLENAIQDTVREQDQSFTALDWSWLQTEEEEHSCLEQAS

[3] = molecular target: MAP kinase-activated protein kinase 3 (Homo sapiens) (UniProt Q16644); assay: Selectivity interaction (Kinase panel (Z-LYTE Assay)) EUB0001632a MAPKAPK3; conditions: at 10 µM
MAP kinase-activated protein kinase 3 (Homo sapiens), sequence (Q16644 whole entry, looked up): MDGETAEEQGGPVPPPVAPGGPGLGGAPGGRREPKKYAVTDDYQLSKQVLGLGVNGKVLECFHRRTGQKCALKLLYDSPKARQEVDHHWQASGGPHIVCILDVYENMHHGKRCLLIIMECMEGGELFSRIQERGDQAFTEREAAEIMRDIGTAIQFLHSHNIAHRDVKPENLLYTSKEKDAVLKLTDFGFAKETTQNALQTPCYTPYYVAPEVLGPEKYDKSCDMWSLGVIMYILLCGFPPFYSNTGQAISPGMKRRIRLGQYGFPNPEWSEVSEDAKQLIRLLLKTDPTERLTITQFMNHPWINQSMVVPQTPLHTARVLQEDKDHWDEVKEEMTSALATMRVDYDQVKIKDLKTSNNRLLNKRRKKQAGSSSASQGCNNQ

[4] = molecular target: Proto-oncogene tyrosine-protein kinase Src (Homo sapiens, UniProt P12931); assay: Selectivity interaction (Kinase panel (Z-LYTE Assay)) EUB0001632a SRC; conditions: at 10 µM
Proto-oncogene tyrosine-protein kinase Src, sequence (P12931 2-536 limits assumed): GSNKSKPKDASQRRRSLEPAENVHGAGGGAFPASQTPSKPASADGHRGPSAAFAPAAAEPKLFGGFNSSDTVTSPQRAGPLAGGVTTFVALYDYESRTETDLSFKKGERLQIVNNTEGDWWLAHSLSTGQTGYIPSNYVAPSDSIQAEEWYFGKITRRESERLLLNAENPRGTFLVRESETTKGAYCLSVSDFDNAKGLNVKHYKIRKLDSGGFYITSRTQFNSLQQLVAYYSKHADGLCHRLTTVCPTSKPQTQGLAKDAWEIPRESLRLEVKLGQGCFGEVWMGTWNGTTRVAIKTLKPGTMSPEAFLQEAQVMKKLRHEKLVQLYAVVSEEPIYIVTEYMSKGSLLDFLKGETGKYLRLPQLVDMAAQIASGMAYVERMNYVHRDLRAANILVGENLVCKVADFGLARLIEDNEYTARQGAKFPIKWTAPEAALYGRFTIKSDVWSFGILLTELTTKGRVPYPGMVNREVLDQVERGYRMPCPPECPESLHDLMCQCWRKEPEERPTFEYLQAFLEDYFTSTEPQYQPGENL

[5] = molecular target: T2, Protein kinase C epsilon type (Homo sapiens) (UniProt Q02156); assay: Selectivity interaction (Kinase panel (Invitrogen)) EUB0000639a PRKCE; conditions: at 200 nM
T2 sequence (whole entry): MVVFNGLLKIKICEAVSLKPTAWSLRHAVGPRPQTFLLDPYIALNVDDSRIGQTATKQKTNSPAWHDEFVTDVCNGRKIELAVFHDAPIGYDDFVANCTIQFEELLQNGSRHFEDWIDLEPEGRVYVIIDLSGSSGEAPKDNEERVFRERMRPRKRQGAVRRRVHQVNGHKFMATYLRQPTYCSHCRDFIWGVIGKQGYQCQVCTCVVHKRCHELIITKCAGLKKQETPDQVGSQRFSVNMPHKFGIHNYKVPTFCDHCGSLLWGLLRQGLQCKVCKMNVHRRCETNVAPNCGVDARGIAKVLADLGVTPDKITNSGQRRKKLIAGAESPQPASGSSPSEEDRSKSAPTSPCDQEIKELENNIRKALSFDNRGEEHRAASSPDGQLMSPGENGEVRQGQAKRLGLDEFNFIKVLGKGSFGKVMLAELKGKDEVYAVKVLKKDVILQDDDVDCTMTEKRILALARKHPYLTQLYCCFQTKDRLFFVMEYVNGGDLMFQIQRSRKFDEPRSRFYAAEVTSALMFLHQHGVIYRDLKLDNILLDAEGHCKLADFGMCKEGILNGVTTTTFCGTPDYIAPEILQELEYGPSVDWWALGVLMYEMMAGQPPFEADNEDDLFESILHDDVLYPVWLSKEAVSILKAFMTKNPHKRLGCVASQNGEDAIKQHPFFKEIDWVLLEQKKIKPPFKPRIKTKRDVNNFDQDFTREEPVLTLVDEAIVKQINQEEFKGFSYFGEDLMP

[6] = molecular target: T3, Cyclin-dependent kinase-like 2 (Homo sapiens) (UniProt Q92772); assay: Selectivity interaction (KinomeScan (DiscoverX)) EUB0000607a CDKL2; conditions: at 10 µM
T3 sequence (whole entry): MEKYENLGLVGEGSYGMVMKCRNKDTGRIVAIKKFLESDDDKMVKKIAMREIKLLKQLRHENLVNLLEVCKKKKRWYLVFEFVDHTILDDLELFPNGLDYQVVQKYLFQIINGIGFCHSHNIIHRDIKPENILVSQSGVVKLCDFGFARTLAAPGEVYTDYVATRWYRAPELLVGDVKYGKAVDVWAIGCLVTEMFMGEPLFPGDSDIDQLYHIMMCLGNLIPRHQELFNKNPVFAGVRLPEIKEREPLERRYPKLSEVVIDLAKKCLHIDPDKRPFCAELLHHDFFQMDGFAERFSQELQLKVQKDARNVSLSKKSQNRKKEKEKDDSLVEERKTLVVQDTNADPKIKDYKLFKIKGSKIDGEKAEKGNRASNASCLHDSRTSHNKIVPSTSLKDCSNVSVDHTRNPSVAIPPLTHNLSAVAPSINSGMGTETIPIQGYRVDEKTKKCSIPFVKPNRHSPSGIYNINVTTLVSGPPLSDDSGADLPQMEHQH

[7] = molecular target: T4, Dual specificity mitogen-activated protein kinase kinase 3 (Homo sapiens) (UniProt P46734); assay: Selectivity interaction (KinomeScan (DiscoverX)) EUB0000595a MAP2K3; conditions: at 10 µM
T4 sequence (whole entry): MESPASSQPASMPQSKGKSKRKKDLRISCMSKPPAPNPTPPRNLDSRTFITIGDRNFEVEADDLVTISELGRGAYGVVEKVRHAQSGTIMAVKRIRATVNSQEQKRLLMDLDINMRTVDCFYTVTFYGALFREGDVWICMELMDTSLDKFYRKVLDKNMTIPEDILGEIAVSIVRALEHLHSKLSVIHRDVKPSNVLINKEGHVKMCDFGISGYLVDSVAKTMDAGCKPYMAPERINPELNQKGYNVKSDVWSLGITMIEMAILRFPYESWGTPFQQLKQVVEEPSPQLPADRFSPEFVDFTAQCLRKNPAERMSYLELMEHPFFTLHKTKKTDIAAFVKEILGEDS

[8] = molecular target: Tyrosine-protein kinase BTK (Homo sapiens, UniProt Q06187); assay: Selectivity interaction (KinomeScan (DiscoverX)) EUB0000618a BTK; conditions: at 10 µM
Tyrosine-protein kinase BTK, sequence (Q06187 whole entry): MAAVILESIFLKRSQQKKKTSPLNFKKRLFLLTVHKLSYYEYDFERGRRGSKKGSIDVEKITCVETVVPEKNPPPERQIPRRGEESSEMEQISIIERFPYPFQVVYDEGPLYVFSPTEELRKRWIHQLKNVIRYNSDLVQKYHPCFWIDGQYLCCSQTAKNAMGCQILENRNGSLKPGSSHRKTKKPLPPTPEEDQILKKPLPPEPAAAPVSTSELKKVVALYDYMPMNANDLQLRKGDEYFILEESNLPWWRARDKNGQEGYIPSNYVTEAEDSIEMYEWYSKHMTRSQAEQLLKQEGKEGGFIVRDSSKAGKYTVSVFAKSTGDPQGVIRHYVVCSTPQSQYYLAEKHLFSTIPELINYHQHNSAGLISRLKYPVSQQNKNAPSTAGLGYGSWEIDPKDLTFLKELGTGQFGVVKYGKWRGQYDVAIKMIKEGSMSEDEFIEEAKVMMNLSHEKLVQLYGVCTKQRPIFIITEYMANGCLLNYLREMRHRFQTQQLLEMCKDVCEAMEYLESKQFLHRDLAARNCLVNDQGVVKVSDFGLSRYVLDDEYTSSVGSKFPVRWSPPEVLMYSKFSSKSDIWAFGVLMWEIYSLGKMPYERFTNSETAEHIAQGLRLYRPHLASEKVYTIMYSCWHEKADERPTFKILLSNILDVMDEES

[9] = molecular target: Serine/threonine-protein kinase SIK2 (Homo sapiens) (UniProt Q9H0K1); assay: Selectivity interaction (KinomeScan (DiscoverX)) EUB0001619a SIK2; conditions: at 1 µM
Serine/threonine-protein kinase SIK2 (Homo sapiens), sequence (Q9H0K1 whole entry, looked up): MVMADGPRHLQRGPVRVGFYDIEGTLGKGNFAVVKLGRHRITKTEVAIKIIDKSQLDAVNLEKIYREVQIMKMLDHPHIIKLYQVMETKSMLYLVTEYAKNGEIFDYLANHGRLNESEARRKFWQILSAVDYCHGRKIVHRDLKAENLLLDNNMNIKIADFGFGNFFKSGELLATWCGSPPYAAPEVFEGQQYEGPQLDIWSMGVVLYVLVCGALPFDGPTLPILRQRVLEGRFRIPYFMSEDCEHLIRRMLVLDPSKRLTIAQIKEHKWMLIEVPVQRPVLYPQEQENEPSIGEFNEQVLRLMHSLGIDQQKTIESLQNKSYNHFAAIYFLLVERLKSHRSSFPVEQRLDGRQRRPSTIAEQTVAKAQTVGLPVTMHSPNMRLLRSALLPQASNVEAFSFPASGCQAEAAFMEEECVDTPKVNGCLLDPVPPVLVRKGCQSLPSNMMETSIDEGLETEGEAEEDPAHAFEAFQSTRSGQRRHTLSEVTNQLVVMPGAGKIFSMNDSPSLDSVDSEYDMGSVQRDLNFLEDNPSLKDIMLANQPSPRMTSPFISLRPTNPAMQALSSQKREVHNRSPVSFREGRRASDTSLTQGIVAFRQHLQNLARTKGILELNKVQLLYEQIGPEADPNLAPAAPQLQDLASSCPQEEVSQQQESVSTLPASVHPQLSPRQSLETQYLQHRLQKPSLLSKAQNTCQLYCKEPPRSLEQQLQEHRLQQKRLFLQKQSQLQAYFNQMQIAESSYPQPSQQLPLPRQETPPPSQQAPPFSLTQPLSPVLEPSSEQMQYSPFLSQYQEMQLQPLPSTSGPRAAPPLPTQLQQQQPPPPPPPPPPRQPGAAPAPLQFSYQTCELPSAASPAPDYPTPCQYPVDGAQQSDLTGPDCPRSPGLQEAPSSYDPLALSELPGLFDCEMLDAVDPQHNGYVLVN

Death-associated protein kinase 1, sequence (P53355 whole entry, looked up): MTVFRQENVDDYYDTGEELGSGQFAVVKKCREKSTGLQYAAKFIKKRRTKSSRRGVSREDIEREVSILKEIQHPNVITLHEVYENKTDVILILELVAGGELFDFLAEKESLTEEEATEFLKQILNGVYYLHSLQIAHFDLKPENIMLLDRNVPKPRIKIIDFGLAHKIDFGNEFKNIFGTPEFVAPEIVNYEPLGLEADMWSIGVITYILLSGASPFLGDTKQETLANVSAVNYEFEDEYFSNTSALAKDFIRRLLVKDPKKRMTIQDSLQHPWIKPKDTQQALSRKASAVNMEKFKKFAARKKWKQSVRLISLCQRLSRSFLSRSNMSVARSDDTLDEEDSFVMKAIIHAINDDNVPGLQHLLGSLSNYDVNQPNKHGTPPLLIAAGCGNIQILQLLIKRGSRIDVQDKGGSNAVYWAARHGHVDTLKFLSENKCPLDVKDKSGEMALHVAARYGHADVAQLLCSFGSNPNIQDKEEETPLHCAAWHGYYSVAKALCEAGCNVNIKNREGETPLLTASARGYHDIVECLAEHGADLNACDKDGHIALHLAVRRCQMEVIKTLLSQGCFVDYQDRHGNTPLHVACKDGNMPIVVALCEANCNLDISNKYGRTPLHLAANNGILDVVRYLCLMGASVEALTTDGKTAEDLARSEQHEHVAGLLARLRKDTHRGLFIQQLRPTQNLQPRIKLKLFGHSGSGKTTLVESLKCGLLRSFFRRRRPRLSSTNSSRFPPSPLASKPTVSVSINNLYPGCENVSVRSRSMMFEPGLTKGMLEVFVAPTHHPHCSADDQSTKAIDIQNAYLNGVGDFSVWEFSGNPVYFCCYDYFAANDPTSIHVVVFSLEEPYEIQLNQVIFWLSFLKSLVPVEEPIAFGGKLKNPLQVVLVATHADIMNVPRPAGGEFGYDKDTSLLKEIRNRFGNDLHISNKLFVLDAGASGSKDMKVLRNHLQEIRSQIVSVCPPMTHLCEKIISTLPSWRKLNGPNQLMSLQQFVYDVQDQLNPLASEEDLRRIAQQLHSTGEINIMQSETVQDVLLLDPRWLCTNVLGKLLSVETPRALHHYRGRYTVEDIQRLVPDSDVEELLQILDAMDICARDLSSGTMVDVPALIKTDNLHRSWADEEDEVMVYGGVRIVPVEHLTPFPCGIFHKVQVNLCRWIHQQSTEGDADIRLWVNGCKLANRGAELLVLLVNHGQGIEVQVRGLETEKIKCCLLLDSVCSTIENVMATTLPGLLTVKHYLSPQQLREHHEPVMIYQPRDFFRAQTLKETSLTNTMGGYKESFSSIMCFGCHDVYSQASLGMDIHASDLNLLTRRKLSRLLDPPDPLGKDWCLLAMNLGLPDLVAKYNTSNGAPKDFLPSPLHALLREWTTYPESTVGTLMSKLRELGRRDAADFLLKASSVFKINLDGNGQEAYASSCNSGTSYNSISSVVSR

CC(C)(O)[C@H](F)CN1Cc2cc(NC(=O)c3cnn4cccnc34)c(N3CCOCC3)cc2C1=O
dTM [1]: 0.1 K

Cc1ccc(-c2ccc3c(ccc4sc5c(c43)NC[C@@H](C)NC5=O)n2)cn1
% of inhibition [2]: 0%

Cn1cc(-n2cnc3c(NCc4nc5cc(Cl)c(Cl)cc5[nH]4)nc(N4CCOCC4)nc32)cn1
% of control [3]: 2.63% | % of control [4]: 6.05%

CC[C@@H]1[C@H](F)C(=O)N[C@@H]1COc1nccc2cc(C(N)=O)c(OC)cc12 [ZIMLOVISERTIB]
% of inhibition [5]: -12.5%

CNC(=O)Nc1ccc(-c2nc(N3CC4CCC(C3)O4)c3cnn(C4CCC5(CC4)OCCO5)c3n2)cc1
% of control [6]: 100%

COCC(=O)NC/C=C/c1ccc2ncnc(Nc3ccc(Oc4ccc(C)nc4)c(C)c3)c2c1 [CP-724714]
% of control [7]: 100%

O[C@H]1CC[C@H](Nc2ncc3nc(Nc4c(F)cc(F)cc4F)n([C@H]4CCOC4)c3n2)CC1
% of control [8]: 100%

N#Cc1cccc(-c2c[nH]c3ncnc(N4CCOCC4)c23)c1
% of control [9]: 32%

— ChEMBL document CHEMBL5465560, “Selectivity Literature for EUbOPEN Chemogenomic Library” (2024)
